Where two headings read alike, the source gives them in different places.
Experiments:
HSV-1 (McIntyre Strain) = experiment: HSV-1 replication in human foreskin fibroblasts (virus titre); type: cell-based, Herpes Simplex virus; settings: for Virus titre: human fibroblasts; for Reduction factor: virus titre vs untreated
Experimental: FIG. 1A relates to the concentration of S-acetyl glutathione of 20 mM, and FIG. 1B to the concentration of 10 mM. […] With the evaluation model used, a combination index of less than 1 signifies a synergistic effect, a combination index equal to 1 an additive effect, and a combination index of greater than 1 an antagonistic effect.

VZV (Strain 4400/95) = settings: RPE cells
[1] = S-acetyl glutathione 10 mM alone
[2] = S-acetyl glutathione 20 mM alone

SMILES	Virus titre (HSV-1 (McIntyre Strain); ACV 0.5 μM alone)	Reduction factor (HSV-1 (McIntyre Strain); ACV 0.5 μM alone)	Virus titre (HSV-1 (McIntyre Strain); ACV 1 μM alone)	Reduction factor (HSV-1 (McIntyre Strain); ACV 1 μM alone)	Virus titre (HSV-1 (McIntyre Strain); ACV 2 μM alone)	Reduction factor (HSV-1 (McIntyre Strain); ACV 2 μM alone)	Effectiveness against HSV-1 (HSV-1 (McIntyre Strain); ACV alone, especially in the concentration of 2 μM)	Plaque number (VZV (Strain 4400/95); [1]) [%]	Plaque number (VZV (Strain 4400/95); [2]) [%]	Virus titre (HSV-1 (McIntyre Strain); [1])	Reduction factor (HSV-1 (McIntyre Strain); [1])	Virus titre (HSV-1 (McIntyre Strain); [2])	Reduction factor (HSV-1 (McIntyre Strain); [2])	Concentration from which effective against HSV-1 (HSV-1 (McIntyre Strain); S-acetyl glutathione alone) [mM]
Nc1nc2c(ncn2COCCO)c(=O)[nH]1 [ACV, 9-[(2-hydroxyethoxy)methyl)guanine]	3.1 × 10^6 TCID60/ml	6.8	3.3 × 10^5 TCID60/ml	64	3.8 × 10^3 TCID60/ml	5526	clear effectiveness							
CC(=O)SC[C@H](NC(=O)CC[C@H](N)C(=O)O)C(=O)NCC(=O)O [S-acetyl glutathione]								59	52	1.5 × 10^6 TCID60/ml	14	2.4 × 10^5 TCID60/ml	91	≥ 10
